Legend:
Assay type in all cases: in vivo, human
sleep disturbance [1] = test: PROMIS Sleep Disturbance 8A survey, randomized blinded placebo-controlled study; conditions: for Relative Risk for meaningful clinical improvement on the PROMIS Sleep Disturbance 8A / Estimated marginal percentage achieving meaningful clinical improvement on the PROMIS Sleep 8A: 95% CI in parentheses; for Observed % Achieving Meaningful Clinical Improvement on the PROMIS Sleep 8A: 30% or greater reduction from baseline; for % experiencing MCID in PROMIS Sleep Disturbance 8A score: MCID = score reduction of one half the standard deviation of the baseline score; for Estimated marginal percentage achieving meaningful clinical improvement on the PROMIS Sleep 8A: improvement = 30% or greater reduction from baseline; for Parameter Estimate for PROMIS Sleep Disturbances 8a, Treatment: reference placebo, linear mixed-effects model
Procedure: (§1) The primary aim of this study was to assess the effects of three different formulations of TruCBN softgels and a formulation of 4 mg melatonin on sleep quality, relative to placebo control. There were 5 arms within the study; (1) 4 mg melatonin, (2) 25 mg CBN, (3) 50 mg CBN, (4) 100 mg CBN, and (5) placebo (see Table 1 for further details on study arm formulations). All study arms provided the test article as a softgel. Participants were instructed to take 1 softgel 1-2 hours before bed. To ensure that results were not biased, participants were randomly assigned to product, were blinded to the contents, and were not told what they were taking until the conclusion of the study. The secondary aim of the study was to assess the tolerability of the three formulations of TruCBN softgels and 4 mg melatonin, relative to placebo.
(§2) Study participants were at least 21 years old, endorsed a desire for better sleep quality, and expressed interest in taking a cannabinoid product to improve their sleep. The study was entirely virtual; participants were recruited through online recruitment channels, study product was delivered directly to participants' homes, and all data were collected via online surveys delivered to their mobile device or computer. There were four phases of the study (see FIG. 1 for study timeline): (1) Recruitment and Randomization, (2) Baseline (1 week), (3) Study period (2-5 weeks), and (4) Conclusion.
PROMIS™ Sleep Disturbance 8A: An 8-question survey, with severity thresholds based on T-scores not raw scores. The severity scores are established as follows: • “None to slight”=Less than 55 • “Mild”=55.0-59.9 • “Moderate”=60.0-69.9 • “Severe”=70 and up
The range of raw scores were from 8 to 40, with higher scores translating to greater sleep disturbance (i.e., worse sleep quality). PROMIS™ Sleep Disturbance 8A threshold for minimally important difference: One-half the standard deviation of the baseline score (Purvis, Taylor E. et al., SPINE, 2018, 43(21):1512-1520).
(§3) After receiving study product, each participant was instructed to take 1 softgel each day orally 1-2 hours before bed and complete weekly health and product use surveys. This phase of the study lasted about 4 weeks.
(§4) For precision, adjustments were made for sex, age, race, ethnicity, and body mass index (BMI) in every model. […] Analysis was conducted using Stata 17 and R. An intent-to-treat analysis was run, meaning that all participants who were assigned product (aside from the aforementioned exclusions) were included in the analysis according to their product assignment, regardless of product adherence or study attrition. Visuals of the predicted marginal means of health scores, rather than the raw mean scores, were prepared. Predicted marginal means were calculated from the statistical models and better represent the true differences between arms adjusting for any potential imbalances across arms. A finding that was “significant” means that the likelihood of falsely rejecting the null hypothesis that there were no differences between groups was very small (less than 5%; i.e., the p-value was less than 0.05). In other words, when certain findings were said to be “significant” they are not considered the result of random variation.

[2] = Average time to effect reported by participants; conditions: oral
Procedure: as §3
Participants reported experiencing an effect between 46 and 55 minutes after taking their study product.

sleep disturbance [3] = test: PROMIS Sleep Disturbance SF4A survey, randomized blinded placebo-controlled study; conditions: for Relative Risk for meaningful clinical improvement on the PROMIS Sleep SF4A / Estimated marginal percentage achieving meaningful clinical improvement on the PROMIS Sleep SF4A: 95% CI in parentheses; for Observed % Achieving Meaningful Clinical Improvement on the PROMIS Sleep SF4A: 30% or greater reduction from baseline; for Estimated marginal percentage achieving meaningful clinical improvement on the PROMIS Sleep SF4A: improvement = 30% or greater reduction from baseline
Procedure: as §1, §2
The PROMIS™ Sleep Disturbance SF4A threshold for minimally important difference: One-half the standard deviation of the baseline score (Norman, G. R. et al., Med. Care, 2003, 41:582-592).
as §3, §4

sleep disturbance [4] = test: Participant global impression of change (PGIC) in sleep disturbance; conditions: for Odds Ratio (95% Confidence interval), sleep disturbance PGIC: Dunnett correction; for Parameter estimate for PGIC in sleep disturbance: treatment reference placebo, log-odds scale
Procedure: as §1
Participants received a final study survey asking about their overall experiences and impressions. Afterwards they also receive a Report containing their individualized data.
as §4

[5] = Tolerability: side effects reported by participants
Procedure: as §1, §3
The side effects for all study arms were similar in frequency and mostly mild; none were considered serious or required use of emergency or non-emergency healthcare services. The most commonly reported side effect was grogginess or drowsiness (see FIG. 7). Additional side effects reported by some participants included: chest pain, constipation, urinary tract infection, tingling in lips, dry mouth, weight gain, dry or itchy eyes, low libido, rash, and brain fog.

For `CCCCCc1cc(O)c2c(c1)OC(C)(C)c1ccc(C)cc1-2` [CBN, 6,6,9-trimethyl-3-pentyl-benzo[c]chromen-1-ol], the “Relative Risk for meaningful clinical improvement on the PROMIS Sleep Disturbance 8A” value (sleep disturbance [1]; 25 mg CBN − placebo) was 1.33 (0.65, 2.01), the “Observed % Achieving Meaningful Clinical Improvement on the PROMIS Sleep 8A” value (sleep disturbance [1]; 25 mg CBN) was 46.7% and the “% experiencing MCID in PROMIS Sleep Disturbance 8A score” value (shortened to “% experiencing MCID”) (sleep disturbance [1]; 25 mg CBN) was 46.7%. For the same molecule, the “Estimated marginal percentage achieving meaningful clinical improvement on the PROMIS Sleep 8A” value (sleep disturbance [1]; 25 mg CBN) was 47.1% (35.41%, 62.66%), the “Parameter Estimate for PROMIS Sleep Disturbances 8a, Treatment” value (shortened to “Parameter Estimate … Treatment”) (sleep disturbance [1]; 25 mg CBN) was 0.14 and the “Estimated marginal mean, PROMIS Sleep Disturbance 8A” value (sleep disturbance [1]; 25 mg CBN, week 1) was 21.6. For the same molecule, the “Estimated marginal mean, PROMIS Sleep Disturbance 8A” value (sleep disturbance [1]; 25 mg CBN, week 2) was 20.6, the “Estimated marginal mean, PROMIS Sleep Disturbance 8A” value (sleep disturbance [1]; 25 mg CBN, week 3) was 21.3 and the “Estimated marginal mean, PROMIS Sleep Disturbance 8A” value (sleep disturbance [1]; 25 mg CBN, week 4) was 20.9. The “Relative Risk for meaningful clinical improvement on the PROMIS Sleep Disturbance 8A” value (sleep disturbance [1]; 50 mg CBN − placebo) was 1.46 (0.72, 2.2), the “Observed % Achieving Meaningful Clinical Improvement on the PROMIS Sleep 8A” value (sleep disturbance [1]; 50 mg CBN) was 53.6% and the “% experiencing MCID” value (sleep disturbance [1]; 50 mg CBN) was 53.6%. The “Estimated marginal percentage achieving meaningful clinical improvement on the PROMIS Sleep 8A” value (sleep disturbance [1]; 50 mg CBN) was 51.6% (38.93%, 68.48%), the “Parameter Estimate … Treatment” value (sleep disturbance [1]; 50 mg CBN) was 0.28 and the “Estimated marginal mean, PROMIS Sleep Disturbance 8A” value (sleep disturbance [1]; 50 mg CBN, week 1) was 20.4. The “Estimated marginal mean, PROMIS Sleep Disturbance 8A” value (sleep disturbance [1]; 50 mg CBN, week 2) was 21, the “Estimated marginal mean, PROMIS Sleep Disturbance 8A” value (sleep disturbance [1]; 50 mg CBN, week 3) was 20.7 and the “Estimated marginal mean, PROMIS Sleep Disturbance 8A” value (sleep disturbance [1]; 50 mg CBN, week 4) was 20.3. For the same molecule, the “Relative Risk for meaningful clinical improvement on the PROMIS Sleep Disturbance 8A” value (sleep disturbance [1]; 100 mg CBN − placebo) was 1.39 (0.7, 2.08), the “Observed % Achieving Meaningful Clinical Improvement on the PROMIS Sleep 8A” value (sleep disturbance [1]; 100 mg CBN) was 50.0% and the “% experiencing MCID” value (sleep disturbance [1]; 100 mg CBN) was 50.0%. For the same molecule, the “Estimated marginal percentage achieving meaningful clinical improvement on the PROMIS Sleep 8A” value (sleep disturbance [1]; 100 mg CBN) was 49.1% (36.96%, 65.24%), the “Parameter Estimate … Treatment” value (sleep disturbance [1]; 100 mg CBN) was 0.59 and the “Estimated marginal mean, PROMIS Sleep Disturbance 8A” value (sleep disturbance [1]; 100 mg CBN, week 1) was 20.99. For the same molecule, the “Estimated marginal mean, PROMIS Sleep Disturbance 8A” value (sleep disturbance [1]; 100 mg CBN, week 2) was 21.77, the “Estimated marginal mean, PROMIS Sleep Disturbance 8A” value (sleep disturbance [1]; 100 mg CBN, week 3) was 20.84 and the “Estimated marginal mean, PROMIS Sleep Disturbance 8A” value (sleep disturbance [1]; 100 mg CBN, week 4) was 20.9. The “Average time to effect” value ([2]; 25 mg CBN softgel) was 54.9 min, the “Average time to effect” value ([2]; 50 mg CBN softgel) was 55.5 min and the “Average time to effect” value ([2]; 100 mg CBN softgel) was 46.4 min. For the same molecule, the “Relative Risk for meaningful clinical improvement on the PROMIS Sleep SF4A” value (“Relative Risk … on the PROMIS Sleep SF4A” below) (sleep disturbance [3]; 25 mg CBN − placebo) was 1.35 (0.66, 2.03), the “Observed % Achieving Meaningful Clinical Improvement on the PROMIS Sleep SF4A” value (sleep disturbance [3]; 25 mg CBN) was 47.83% and the “Estimated marginal percentage achieving meaningful clinical improvement on the PROMIS Sleep SF4A” value (sleep disturbance [3]; 25 mg CBN) was 46.28% (34.73%, 61.7%). The “Estimated marginal mean, PROMIS Sleep Disturbance SF4A” value (sleep disturbance [3]; 25 mg CBN, week 1) was 11.0, the “Estimated marginal mean, PROMIS Sleep Disturbance SF4A” value (sleep disturbance [3]; 25 mg CBN, week 2) was 10.81 and the “Estimated marginal mean, PROMIS Sleep Disturbance SF4A” value (sleep disturbance [3]; 25 mg CBN, week 3) was 11.1. The “Estimated marginal mean, PROMIS Sleep Disturbance SF4A” value (sleep disturbance [3]; 25 mg CBN, week 4) was 10.9, the “Relative Risk … on the PROMIS Sleep SF4A” value (sleep disturbance [3]; 50 mg CBN − placebo) was 1.59 (0.81, 2.37) and the “Observed % Achieving Meaningful Clinical Improvement on the PROMIS Sleep SF4A” value (sleep disturbance [3]; 50 mg CBN) was 58.33%. For the same molecule, the “Estimated marginal percentage achieving meaningful clinical improvement on the PROMIS Sleep SF4A” value (sleep disturbance [3]; 50 mg CBN) was 54.76% (41.80%, 71.7%), the “Estimated marginal mean, PROMIS Sleep Disturbance SF4A” value (sleep disturbance [3]; 50 mg CBN, week 1) was 10.7 and the “Estimated marginal mean, PROMIS Sleep Disturbance SF4A” value (sleep disturbance [3]; 50 mg CBN, week 2) was 10.9. The “Estimated marginal mean, PROMIS Sleep Disturbance SF4A” value (sleep disturbance [3]; 50 mg CBN, week 3) was 10.8, the “Estimated marginal mean, PROMIS Sleep Disturbance SF4A” value (sleep disturbance [3]; 50 mg CBN, week 4) was 10.3 and the “Relative Risk … on the PROMIS Sleep SF4A” value (sleep disturbance [3]; 100 mg CBN − placebo) was 1.47 (0.75, 2.19). For the same molecule, the “Observed % Achieving Meaningful Clinical Improvement on the PROMIS Sleep SF4A” value (sleep disturbance [3]; 100 mg CBN) was 53.19%, the “Estimated marginal percentage achieving meaningful clinical improvement on the PROMIS Sleep SF4A” value (sleep disturbance [3]; 100 mg CBN) was 50.56% (38.37%, 66.6%) and the “Estimated marginal mean, PROMIS Sleep Disturbance SF4A” value (sleep disturbance [3]; 100 mg CBN, week 1) was 10.8. For the same molecule, the “Estimated marginal mean, PROMIS Sleep Disturbance SF4A” value (sleep disturbance [3]; 100 mg CBN, week 2) was 11.33, the “Estimated marginal mean, PROMIS Sleep Disturbance SF4A” value (sleep disturbance [3]; 100 mg CBN, week 3) was 10.8 and the “Estimated marginal mean, PROMIS Sleep Disturbance SF4A” value (sleep disturbance [3]; 100 mg CBN, week 4) was 10.8. For the same molecule, the “Marginal mean (95% confidence interval), sleep disturbance PGIC” value (“Marginal mean (95% confidence interval)” below) (sleep disturbance [4]; 25 mg CBN) was 3.81, the “Odds Ratio (95% Confidence interval), sleep disturbance PGIC” value (shortened to “Odds Ratio (95% Confidence interval)”) (sleep disturbance [4]; 25 mg CBN − placebo) was 1.88 (0.98, 3.62) and the “Parameter estimate for PGIC in sleep disturbance” value (from here on “Parameter estimate for PGIC”) (sleep disturbance [4]; 25 mg CBN) was 0.63. For the same molecule, the “Marginal mean (95% confidence interval)” value (sleep disturbance [4]; 50 mg CBN) was 3.91, the “Odds Ratio (95% Confidence interval)” value (sleep disturbance [4]; 50 mg CBN − placebo) was 2.35 (1.22, 4.51) and the “Parameter estimate for PGIC” value (sleep disturbance [4]; 50 mg CBN) was 0.85. For the same molecule, the “Marginal mean (95% confidence interval)” value (sleep disturbance [4]; 100 mg CBN) was 3.91, the “Odds Ratio (95% Confidence interval)” value (sleep disturbance [4]; 100 mg CBN − placebo) was 2.35 (1.24, 4.44) and the “Parameter estimate for PGIC” value (sleep disturbance [4]; 100 mg CBN) was 0.85. The “% of participants reporting any side effects” value ([5]; 25 mg CBN) was 6.8%, the “% of participants reporting any side effects” value ([5]; 50 mg CBN) was 12.9% and the “% of participants reporting any side effects” value ([5]; 100 mg CBN) was 7.9%.

Source: patent publication US20250009765A1, “COMPOSITIONS AND METHODS FOR REDUCING SLEEP DI[…] TREATING SLEEP DISORDERS” (FloraScience Inc., priority 2023, published 2025)
